Source: PubChem BioAssay (NCI)
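1) Cells in 96-well plates. 2) Compound, 48 h, 5 concentrations. 3) Linear interpolation between surrounding doses. 4) Unreached endpoint = highest concentration. GI50 = concentration required for 50% inhibition of growth. TGI: concentration producing complete growth inhibition.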

Columns and labels:
Test in all cases: NCI tumour cell line growth inhibition, 48 h
786-0 renal = test system: 786-0 renal
A498 renal = test system: A498 renal
A549 NSCLC = test system: A549 NSCLC
ACHN renal = test system: ACHN renal
BT-549 breast = test system: BT-549 breast
CAKI-1 renal = test system: CAKI-1 renal
CCRF-CEM leukemia = test system: CCRF-CEM leukemia
COLO 205 colon = test system: COLO 205 colon
DU-145 prostate = test system: DU-145 prostate
EKVX NSCLC = test system: EKVX NSCLC
HCC-2998 colon = test system: HCC-2998 colon
HCT-116 colon = test system: HCT-116 colon
HCT-15 colon = test system: HCT-15 colon
HL-60(TB) leukemia = test system: HL-60(TB) leukemia
HOP-62 NSCLC = test system: HOP-62 NSCLC
HOP-92 NSCLC = test system: HOP-92 NSCLC
HS 578T breast = test system: HS 578T breast
HT29 colon = test system: HT29 colon
IGROV1 ovarian = test system: IGROV1 ovarian
K-562 leukemia = test system: K-562 leukemia
KM12 colon = test system: KM12 colon
LOX IMVI melanoma = test system: LOX IMVI melanoma
M14 melanoma = test system: M14 melanoma
MALME-3M melanoma = test system: MALME-3M melanoma
MCF7 breast = test system: MCF7 breast
MDA-MB-231 breast = test system: MDA-MB-231 breast
MDA-MB-435 = test system: MDA-MB-435
MOLT-4 leukemia = test system: MOLT-4 leukemia
NCI-H226 lung = test system: NCI-H226 lung
NCI-H23 lung = test system: NCI-H23 lung
NCI-H460 lung = test system: NCI-H460 lung
NCI-H522 lung = test system: NCI-H522 lung
NCI/ADR-RES ovarian = test system: NCI/ADR-RES ovarian
OVCAR-3 ovarian = test system: OVCAR-3 ovarian
OVCAR-4 ovarian = test system: OVCAR-4 ovarian
OVCAR-5 ovarian = test system: OVCAR-5 ovarian
OVCAR-8 ovarian = test system: OVCAR-8 ovarian
PC-3 prostate = test system: PC-3 prostate
RPMI-8226 leukemia = test system: RPMI-8226 leukemia
RXF 393 renal = test system: RXF 393 renal
SF-268 CNS = test system: SF-268 CNS
SF-295 CNS = test system: SF-295 CNS
SF-539 CNS = test system: SF-539 CNS
SK-MEL-2 melanoma = test system: SK-MEL-2 melanoma
SK-MEL-28 melanoma = test system: SK-MEL-28 melanoma
SK-MEL-5 melanoma = test system: SK-MEL-5 melanoma
SK-OV-3 ovarian = test system: SK-OV-3 ovarian
SN12C renal = test system: SN12C renal
SNB-19 CNS = test system: SNB-19 CNS
SNB-75 CNS = test system: SNB-75 CNS
SR leukemia = test system: SR leukemia
SW-620 colon = test system: SW-620 colon
T-47D breast = test system: T-47D breast
TK-10 renal = test system: TK-10 renal
U251 CNS = test system: U251 CNS
UACC-257 melanoma = test system: UACC-257 melanoma
UACC-62 melanoma = test system: UACC-62 melanoma
UO-31 renal = test system: UO-31 renal

SMILES: COc1cccc(/C=C/c2nc3c(cnn3-c3ccccc3)c(=O)[nH]2)c1
- GI50 (786-0 renal): 12.4 µM
- TGI (786-0 renal): > 100 µM
- GI50 (A498 renal): > 100 µM
- TGI (A498 renal): > 100 µM
- GI50 (A549 NSCLC): > 39.6 µM
- TGI (A549 NSCLC): > 100 µM
- GI50 (ACHN renal): 28.1 µM
- TGI (ACHN renal): > 100 µM
- GI50 (BT-549 breast): > 72.9 µM
- TGI (BT-549 breast): > 100 µM
- GI50 (CAKI-1 renal): > 45.6 µM
- TGI (CAKI-1 renal): > 100 µM
- GI50 (CCRF-CEM leukemia): > 100 µM
- TGI (CCRF-CEM leukemia): > 100 µM
- GI50 (COLO 205 colon): > 100 µM
- TGI (COLO 205 colon): > 100 µM
- GI50 (DU-145 prostate): > 100 µM
- TGI (DU-145 prostate): > 100 µM
- GI50 (EKVX NSCLC): 65.8 µM
- TGI (EKVX NSCLC): > 100 µM
- GI50 (HCC-2998 colon): > 100 µM
- TGI (HCC-2998 colon): > 100 µM
- GI50 (HCT-116 colon): 12 µM
- TGI (HCT-116 colon): > 100 µM
- GI50 (HCT-15 colon): > 100 µM
- TGI (HCT-15 colon): > 100 µM
- GI50 (HL-60(TB) leukemia): > 62.8 µM
- TGI (HL-60(TB) leukemia): > 100 µM
- GI50 (HOP-62 NSCLC): 7.19 µM
- TGI (HOP-62 NSCLC): > 100 µM
- GI50 (HOP-92 NSCLC): > 100 µM
- TGI (HOP-92 NSCLC): > 100 µM
- GI50 (HS 578T breast): 13.7 µM
- TGI (HS 578T breast): > 100 µM
- GI50 (HT29 colon): > 59 µM
- TGI (HT29 colon): > 100 µM
- GI50 (IGROV1 ovarian): 13 µM
- TGI (IGROV1 ovarian): > 100 µM
- TGI (K-562 leukemia): > 100 µM
- GI50 (KM12 colon): 25.5 µM
- TGI (KM12 colon): > 100 µM
- GI50 (LOX IMVI melanoma): > 100 µM
- TGI (LOX IMVI melanoma): > 100 µM
- GI50 (M14 melanoma): > 39 µM
- TGI (M14 melanoma): > 100 µM
- GI50 (MALME-3M melanoma): > 100 µM
- TGI (MALME-3M melanoma): > 100 µM
- GI50 (MCF7 breast): 0.467 µM
- TGI (MCF7 breast): > 100 µM
- GI50 (MDA-MB-231 breast): 50 µM
- TGI (MDA-MB-231 breast): > 100 µM
- GI50 (MDA-MB-435): 0.447 µM
- TGI (MDA-MB-435): > 72.4 µM
- GI50 (MOLT-4 leukemia): > 100 µM
- TGI (MOLT-4 leukemia): > 100 µM
- GI50 (NCI-H226 lung): > 100 µM
- TGI (NCI-H226 lung): > 100 µM
- GI50 (NCI-H23 lung): > 100 µM
- TGI (NCI-H23 lung): > 100 µM
- GI50 (NCI-H460 lung): > 81.8 µM
- TGI (NCI-H460 lung): > 100 µM
- GI50 (NCI-H522 lung): > 100 µM
- TGI (NCI-H522 lung): > 100 µM
- GI50 (NCI/ADR-RES ovarian): > 33.7 µM
- TGI (NCI/ADR-RES ovarian): > 100 µM
- GI50 (OVCAR-3 ovarian): 24.9 µM
- TGI (OVCAR-3 ovarian): > 100 µM
- GI50 (OVCAR-4 ovarian): > 34.9 µM
- TGI (OVCAR-4 ovarian): > 100 µM
- GI50 (OVCAR-5 ovarian): > 100 µM
- TGI (OVCAR-5 ovarian): > 100 µM
- GI50 (OVCAR-8 ovarian): > 54.7 µM
- TGI (OVCAR-8 ovarian): > 100 µM
- GI50 (PC-3 prostate): > 100 µM
- TGI (PC-3 prostate): > 100 µM
- GI50 (RPMI-8226 leukemia): > 100 µM
- TGI (RPMI-8226 leukemia): > 100 µM
- GI50 (RXF 393 renal): 17.3 µM
- TGI (RXF 393 renal): 67.9 µM
- GI50 (SF-268 CNS): > 55.6 µM
- TGI (SF-268 CNS): > 100 µM
- GI50 (SF-295 CNS): 17.8 µM
- TGI (SF-295 CNS): > 100 µM
- GI50 (SF-539 CNS): > 70 µM
- TGI (SF-539 CNS): > 100 µM
- GI50 (SK-MEL-2 melanoma): > 100 µM
- TGI (SK-MEL-2 melanoma): > 100 µM
- GI50 (SK-MEL-28 melanoma): > 100 µM
- TGI (SK-MEL-28 melanoma): > 100 µM
- GI50 (SK-MEL-5 melanoma): > 96.6 µM
- TGI (SK-MEL-5 melanoma): > 100 µM
- GI50 (SK-OV-3 ovarian): > 100 µM
- TGI (SK-OV-3 ovarian): > 100 µM
- GI50 (SN12C renal): > 100 µM
- TGI (SN12C renal): > 100 µM
- GI50 (SNB-19 CNS): > 51.9 µM
- TGI (SNB-19 CNS): > 100 µM
- GI50 (SNB-75 CNS): > 25 µM
- TGI (SNB-75 CNS): > 89.3 µM
- TGI (SR leukemia): > 100 µM
- GI50 (SW-620 colon): > 31.4 µM
- TGI (SW-620 colon): > 100 µM
- TGI (T-47D breast): > 100 µM
- GI50 (TK-10 renal): > 28.2 µM
- TGI (TK-10 renal): > 100 µM
- GI50 (U251 CNS): > 72.1 µM
- TGI (U251 CNS): > 100 µM
- GI50 (UACC-257 melanoma): > 100 µM
- TGI (UACC-257 melanoma): > 100 µM
- GI50 (UACC-62 melanoma): > 100 µM
- TGI (UACC-62 melanoma): > 100 µM
- GI50 (UO-31 renal): > 56.8 µM
- TGI (UO-31 renal): > 100 µM
